Results published in US10730868B2, “Bicyclic heteroaryl substituted compounds” (BRISTOL-MYERS SQUIBB COMPANY, priority 2016, dated 2020).

What follows are compounds tested against PAR4 (Homo sapiens (Human), UniProt Q96RI0) (assay: PAR4 FLIPR assay (antagonism of agonist-peptide-induced calcium mobilization)). Conditions: H-Ala-Phe(4-F)-Pro-Gly-Trp-Leu-Val-Lys-Asn-Gly-NH2-induced intracellular calcium mobilization, PAR4-expressing HEK293 cells; read-out: PAR4 FLTPR assay (IC50).
Format: cell-based
Excerpt: The Fluorometric Imaging Plate Reader (FLIPR) assay is an exemplary in vitro assay for measuring the activity of the PAR4 antagonists of the present invention. In this assay, intracellular calcium mobilization is induced in PAR4 expressing cells by a PAR4 agonist and calcium mobilization is monitored.
HEK293 cells stably expressing PAR4 were generated by a standard method of transfection of human PAR4 (F2R23) cDNA expression vector and selected based on PAR4 protein expression or mRNA expression. […] These cells also express endogenous PAR1 and can elicit calcium signal upon stimulation with PAR1 agonist peptide. Therefore, the same cells were also used to determine selectivity against PAR1 and agonist activity for both receptors. Cells from HEK293 PAR4 Clone 1.2A (BMS Arctic ID 383940) were propagated and used for calcium mobilization studies.
FLIPR-based calcium mobilization assay in HEK293 cells was used to measure PAR4 antagonism agonism, and selectivity against PAR1. The activity of the PAR4 antagonists of the present invention were tested in PAR4 expressing cells by monitoring H-Ala-Phe(4-F)-[…]NH2-induced intracellular calcium mobilization. Counter screens for agonist activity and PAR1 antagonist activity were also performed. Briefly, PAR/PAR4-expressing HEK293 cells were grown in DMEM (Life Technology, Grand Island, N.Y.) containing 10% heat-inactivated FBS, 1% Penicillin-Streptomycin, 10 μg/mL blasticidin, and 100 μg/mL Zeocin at 37° C. with 5% CO2. Cells were plated overnight prior to the experiment in a black 384-well Purecoat Amine clear bottom plate (Becton Dickinson Biosciences, San Jose, Calif.) at 10,000 cells/well in 30 μL growth medium and incubated in a humidified chamber at 37° C. with 5% CO2 overnight. Prior to compound addition, the cell medium was replaced with 40 μL of 1× calcium and magnesium-containing Hank's Balanced Saline Solution (HBSS) (with 20 mM HEPES) and 1:1000 diluted fluorescent calcium indicator (Codex Biosolutions, Gaithersburg, Md.). After a 30 minute incubation period at 37° C. and a further 30 minute incubation and equilibration period at room temperature, 20 μL test compound (diluted in 1×HBSS buffer) was added at various concentrations at 0.17% dimethyl sulfoxide (DMSO) final concentration. Changes in fluorescence intensity were measured using a Functional Drug Screening System (FDSS, Hamamatsu, Japan) to determine agonist activities. The cells were then incubated for 30 minutes at room temperature followed by addition of 20 μL of agonist peptide for antagonist activity measurement. […] Compound potency was derived from 11-point concentration-response curves.

Sequence of PAR4 (Q96RI0 18-385): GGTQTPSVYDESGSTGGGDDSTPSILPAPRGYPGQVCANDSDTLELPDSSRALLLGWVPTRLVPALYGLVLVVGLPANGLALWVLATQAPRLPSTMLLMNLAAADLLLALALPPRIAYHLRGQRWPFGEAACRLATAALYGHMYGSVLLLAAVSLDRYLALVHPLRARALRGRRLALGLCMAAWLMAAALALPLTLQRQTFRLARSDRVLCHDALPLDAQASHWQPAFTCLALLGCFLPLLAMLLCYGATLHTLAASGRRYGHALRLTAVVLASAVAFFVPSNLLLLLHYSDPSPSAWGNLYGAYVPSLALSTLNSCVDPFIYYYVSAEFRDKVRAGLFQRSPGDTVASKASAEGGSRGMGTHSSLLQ

Compound | IC50 [nM]
COc1cnc2c(-c3nc4cc(F)c(O[C@H]5CC(F)(F)CC[C@H]5OC(=O)Nc5ccc(CO)nc5)cc4s3)cc(C)cc2n1 [Example 6] | 0.76
COc1cnc2c(-c3nc4cc(F)c(O[C@H]5CC(F)(F)CC[C@H]5OC(=O)Nc5ccnc(OCCC(C)(C)O)c5)cc4s3)cc(C)cc2n1 [Example 8] | 1.2
COc1cnc2c(-c3nc4cc(F)c(O[C@H]5CC(F)(F)CC[C@H]5OC(=O)Nc5ccnnc5)cc4s3)cc(C)cc2n1 [Example 9] | 12
COc1cnc2c(-c3nc4cc(F)c(O[C@H]5CC(F)(F)CC[C@H]5OC(=O)Nc5cnc(CO)nc5)cc4s3)cc(C)cc2n1 [Example 10] | 23
COc1cnc2c(-c3nc4cc(F)c(O[C@@H]5CC(F)(F)CC[C@@H]5OC(=O)Nc5cnc(C)nc5)cc4s3)cc(C)cc2n1 [Example 13] | 110
COc1cnc2c(-c3nc4cc(F)c(O[C@H]5CC(F)(F)CC[C@H]5OC(=O)Nc5cnc(OCCO)nc5)cc4s3)cc(C)cc2c1 [Example 15, (1R, 2S)-4,4-difluoro-2-((5-fluoro-2-(3-methoxy-6-methylquinolin-8-yl)benzo[d]thiazol-6-yl)oxy)cyclohexyl (2-(2-hydroxyethoxy)pyrimidin-5-yl)carbamate] | 0.77
COc1cnc2c(-c3nc4cc(F)c(O[C@H]5CC(F)(F)CC[C@H]5OC(=O)Nc5cnc(OCCO)nc5)cc4s3)cc(Cl)cc2c1 [Example 16, (1R,2S)-2-((2-(6-chloro-3-methoxyquinolin-8-vi)-5-fluorobenzo[d]thiazol-6-yl)oxy)-4,4-difluorocyclohexyl (2-(2-hydroxyethoxy)pyrimidin-5-yl)carbamate] | 1.3
COc1cnc2c(-c3nc4cc(F)c(O[C@H]5CC(F)(F)CC[C@H]5OC(=O)Nc5cnc(C)nc5)cc4s3)cc(Cl)cc2c1 [Example 17, (1R,2S)-2-((2-(6-chloro-3-methoxyquinolin-8-yl)-5-fluorobenzo[d]thiazol-6-yl)oxy)-4,4-difluorocyclohexyl (2-methylpyrimidin-5-yl)carbamate] | 4.1
CCOc1cnc2c(-c3nc4cc(F)c(O[C@H]5CC(F)(F)CC[C@H]5OC(=O)Nc5cnc(C)nc5)cc4s3)cc(C)cc2n1 [Example 18, (1R,2S)-2-((2-(2-ethoxy-7-methylquinoxalin-5-yl)-5-fluorobenzo[d]thiazol-6-yl)oxy)-4,4-difluorocyclohexyl (2-methylpyrimidin-5-yl)carbamate] | 3.9
COc1cnc2c(-c3nc4cc(F)c(O[C@H]5CC(F)(F)CC[C@H]5OC(=O)Nc5cnc(OCCOP(=O)(O)O)nc5)cc4s3)cc(C)cc2n1 [Example 19, (1R,2S)-4,4-difluoro-2-((5-fluoro-2-(2-methoxy-7-methylquinoxalin-5-yl)benzo[d]thiazol-6-yl)oxy)cyclohexyl (2-(2-(phosphonooxy)ethoxy)pyrimidin-5-yl)carbamate] | 1
COc1ccc(NC(=O)O[C@H]2CCC[C@H]2Oc2cc3sc(-c4cc(C)cc5nc(OC)cnc45)nc3cc2F)cn1 [Example 23] | 30
COc1ccc(NC(=O)O[C@@H]2CCC[C@@H]2Oc2cc3sc(-c4cc(C)cc5nc(OC)cnc45)nc3cc2F)nc1 [Example 24] | 7.8
COc1ccc(NC(=O)O[C@@H]2CCC[C@@H]2Oc2cc3sc(-c4cc(C)cc5nc(OC)cnc45)nc3cc2F)cc1 [Example 25] | 1.3
COc1cnc2c(-c3nc4cc(F)c(O[C@H]5CCC[C@H]5OC(=O)Nc5ncc(C)cn5)cc4s3)cc(C)cc2n1 [Example 26] | 83
COc1cnc2c(-c3nc4cc(F)c(O[C@@H]5CCC[C@@H]5OC(=O)Nc5cnc(C)nc5)cc4s3)cc(C)cc2n1 [Example 27] | 58
COc1cnc2c(-c3nc4cc(F)c(O[C@H]5CCC[C@H]5OC(=O)NC(C)C)cc4s3)cc(C)cc2n1 [Example 29] | 12
COc1cnc2c(-c3nc4cc(F)c(O[C@H]5CCC[C@H]5OC(=O)Nc5ccnc(C)c5)cc4s3)cc(C)cc2n1 [Example 30] | 2.6

Compound | IC50 [nM]
COc1cnc2c(-c3nc4cc(F)c(O[C@H]5CCC[C@H]5OC(=O)Nc5ccc(CO)nc5)cc4s3)cc(C)cc2n1 [Example 31] | 1.1
COc1cnc2c(-c3nc4cc(F)c(O[C@H]5CCC[C@H]5OC(=O)Nc5ccc(C)nc5)cc4s3)cc(C)cc2n1 [Example 32] | 2.6
COc1cnc2c(-c3nc4cc(F)c(O[C@H]5CCC[C@H]5OC(=O)Nc5cncc(C#N)c5)cc4s3)cc(C)cc2n1 [Example 34] | 1.6
COc1cnc2c(-c3nc4cc(F)c(O[C@H]5CCC[C@H]5OC(=O)Nc5ccc(C#N)nc5)cc4s3)cc(C)cc2n1 [Example 36] | 2.4
COc1cnc2c(-c3nc4cc(F)c(O[C@H]5CCC[C@H]5OC(=O)Nc5cnc(C)nc5)cc4s3)cc(C)cc2n1 [Example 37] | 4
COc1cnc2c(-c3nc4cc(F)c(O[C@H]5CCC[C@H]5OC(N)=O)cc4s3)cc(C)cc2n1 [Example 39] | 400
COC(=O)c1ccc(NC(=O)O[C@@H]2CCC[C@@H]2Oc2cc3sc(-c4cc(C)cc5nc(OC)cnc45)nc3cc2F)cn1 [Example 47, methyl 5-(((((1R,2S)-2-((5-fluoro-2-(2-methoxy-7-methylquinoxalin-5-yl)benzo[d]thiazol-6-yl)oxy)cyclopentyl)oxy)carbonyl)amino)picolinate] | 4.2
CNC(=O)c1ccc(NC(=O)O[C@@H]2CCC[C@@H]2Oc2cc3sc(-c4cc(C)cc5nc(OC)cnc45)nc3cc2F)cn1 [Example 48, (1R,2S)-2-((5-fluoro-2-(2-methoxy-7-methylquinoxalin-5-yl)benzo[d]thiazol-6-yl)oxy)cyclopentyl (6-(methylcarbamoyl)pyridin-3-yl)carbamate] | 2.4
COc1cnc2c(-c3nc4cc(F)c(O[C@H]5CCC[C@H]5OC(=O)Nc5ccc(C(N)=O)nc5)cc4s3)cc(C)cc2n1 [Example 49, (1R,2S)-2-((5-fluoro-2-(2-methoxy-7-methylquinoxalin-5-yl)benzo[d]thiazol-6-yl)oxy)cyclopentyl (6-carbamoylpyridin-3-yl)carbamate] | 3.6
COc1cnc2c(-c3nc4cc(F)c(O[C@H]5CCC[C@H]5OC(=O)Nc5ccc(C(=O)N(C)C)nc5)cc4s3)cc(C)cc2n1 [Example 50, (1R,2S)-2-((5-fluoro-2-(2-methoxy-7-methylquinoxalin-5-yl)benzo[d]thiazol-6-yl)oxy)cyclopentyl (6-(dimethylcarbamoyl)pyridin-3-yl)carbamate] | 3.4
COC(=O)c1ncc(NC(=O)O[C@@H]2CCC[C@@H]2Oc2cc3sc(-c4cc(C)cc5nc(OC)cnc45)nc3cc2F)cn1 [Example 51, methyl 5-(((((1R,2S)-2-((5-fluoro-2-(2-methoxy-7-methylquinoxalin-5-yl)benzo[d]thiazol-6-yl)oxy)cyclopentyl)oxy)carbonyl)amino)pyrimidine-2-carboxylate] | 6.8
COc1cnc2c(-c3nc4cc(F)c(O[C@H]5CCC[C@H]5OC(=O)Nc5cnc(C(N)=O)nc5)cc4s3)cc(C)cc2n1 [Example 52, (1R,2S)-2-((5-fluoro-2-(2-methoxy-7-methylquinoxalin-5-yl)benzo[d]thiazol-6-yl)oxy)cyclopentyl (2-carbamoylpyrimidin-5-yl)carbamate] | 2.5
COc1cnc2c(-c3nc4cc(F)c(O[C@H]5CC[C@H]5O)cc4s3)cc(C)cc2n1 [Example 60, cis-2-((5-fluoro-2-(2-methoxy-7-methylquinoxalin-5-yl)benzo[d]thiazol-6-yl)oxy)cyclobutanol (Homochiral)] | 9.8
COc1cnc2c(-c3nc4cc(F)c(O[C@H]5CC[C@H]5OC(=O)Nc5cnc(OC[C@@H](C)O)nc5)cc4s3)cc(C)cc2n1 [Example 63] | 7.4
COc1cnc2c(-c3nc4cc(F)c(O[C@H]5CC[C@H]5OC(=O)Nc5cnc(OCCO)nc5)cc4s3)cc(C)cc2n1 [Example 64] | 1.9
COc1cnc2c(-c3nc4cc(F)c(O[C@H]5CC[C@H]5OC(=O)Nc5cnc(CCO)nc5)cc4s3)cc(C)cc2n1 [Example 65] | 3.7

Same assay, conditions: H-Ala-Phe(4-F)-[…]NH2-induced intracellular calcium mobilization, PAR4-expressing HEK293 cells; read-out: PAR4 FLTPR assay (IC50)

Compound | IC50 [nM]
COc1ccc(NC(=O)O[C@@H]2CCC[C@@H]2Oc2cc3sc(-c4cc(C)cc5nc(OC)cnc45)nc3cc2F)cn1 [Example 22, (1R,2S)-2-((5-fluoro-2-(2-methoxy-7-methylquinoxalin-5-yl)benzo[d]thiazol-6-yl)oxy)cyclopentyl (6-methoxy pyridin-3-yl)carbamate] | 2.4
